# Laboratory results published in PubChem BioAssay AID624472 (The Scripps Research Institute Molecular Screening Center, 2012).
# Target: Monoacylglycerol lipase ABHD6 (Mus musculus) (UniProt Q8R2Y0)
# Test: ABHD6 inhibition in mouse proteome, late-stage follow-up, selectivity assay for DAGLb inhibitor project, biochemical, gel-based competitive ABPP, fluorescence, enantiomers (AID 624472)
# Details: at 10 µM (top of the series)
# Sequence of Monoacylglycerol lipase ABHD6 (Mus musculus) (Q8R2Y0 whole entry, looked up): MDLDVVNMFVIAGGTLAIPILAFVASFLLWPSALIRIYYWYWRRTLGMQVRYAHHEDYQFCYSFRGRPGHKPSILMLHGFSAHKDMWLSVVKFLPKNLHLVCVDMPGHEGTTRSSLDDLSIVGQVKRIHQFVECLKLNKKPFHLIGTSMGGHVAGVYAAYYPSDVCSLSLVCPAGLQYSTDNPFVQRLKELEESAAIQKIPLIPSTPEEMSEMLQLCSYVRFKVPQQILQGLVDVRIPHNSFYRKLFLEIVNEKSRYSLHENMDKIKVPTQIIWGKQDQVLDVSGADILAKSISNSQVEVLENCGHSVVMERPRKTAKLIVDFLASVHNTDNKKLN
structure (smiles),measurement,value
O=C(N1CCCCC1Cc1ccccc1)n1cc(-c2ccc(Br)cc2)nn1 (stereo unspecified),inhibition,100%
